Active and inactive are the calls of the source. The calls are words filed in the database; no cut-off is given here.
How the values were obtained:
[1] = molecular target: Estrogen-related receptor gamma (Homo sapiens, UniProt P62508); experiment: Antagonist activity at ERRgamma (unknown origin) assessed as inhibition of co-activator peptide recruitment by TR-FRET assay
[2] = Volume of distribution at steady state in CD-1 mouse at 5 mg/kg, iv by LC-MS analysis; format: ADME, organism-based; conditions: in vivo, read-out: Vdss
[3] = AUC (0 to 24 hrs) in Sprague-Dawley rat at 10 mg/kg administered via oral gavage by LC-MS analysis; format: ADME, organism-based; set-up: dose 10 mg/kg, time < 24 hr, route oral; conditions: in vivo
[4] = Terminal half life in ob/ob mouse at 18 mg/kg administered via oral gavage by LC-MS analysis; format: ADME, organism-based; conditions: in vivo, read-out: beta t1/2 (converted)
[5] = tested on: Rattus norvegicus; experiment: Antidiabetic activity in Zucker rat sub-chronic fa/fa prediabetic model assessed as fasting blood glucose level at 3 mg/kg, po qd for 31 days measured on day 29 post dose (reference value: 163 +/- 9.2 mg/dl); format: functional
[6] = AUC (0 to 24 hrs) in Zucker rat sub-chronic fa/fa prediabetic model at 10 mg/kg, po qd measured on day 1 post dose; format: ADME, organism-based; set-up: time < 24 hr, dose 10 mg/kg, route oral; conditions: in vivo
[7] = tested on: Rattus norvegicus; experiment: Toxicity in Zucker rat sub-chronic fa/fa prediabetic model assessed as change in body weight at 3 mg/kg, po qd for 29 days measured on day 1 to 29 during compound dosing (reference value: 140 +/- 7 g); format: organism-based; conditions: in vivo, 696 h
[8] = tested on: Rattus norvegicus; experiment: Toxicity in Zucker rat sub-chronic fa/fa prediabetic model assessed as change in body weight at 50 mg/kg, po qd for 29 days measured on day 1 to 29 during compound dosing (reference value: 140 +/- 7 g); format: organism-based; conditions: in vivo, 696 h
[9] = tested on: Rattus norvegicus; experiment: Toxicity in Zucker rat sub-chronic fa/fa prediabetic model assessed as triglyceride level per gram liver at 1 mg/kg, po qd for 31 days measured on day 32 (reference value: 163.4 +/- 8.3 mg); format: organism-based; conditions: in vivo, 744 h
[10] = tested on: Rattus norvegicus; experiment: Toxicity in Zucker rat sub-chronic fa/fa prediabetic model assessed as serum cholesterol level at 3 mg/kg, po qd for 31 days measured on day 32 (reference value: 295 +/- 91 mg/dl); format: organism-based; conditions: in vivo, 744 h
[11] = tested on: Rattus norvegicus; experiment: Toxicity in Zucker rat sub-chronic fa/fa prediabetic model assessed as serum BUN level at 10 mg/kg, po qd for 31 days measured on day 32 (reference value: 28.3 +/- […]); format: organism-based; conditions: in vivo, 744 h
[12] = tested on: Rattus norvegicus; experiment: Toxicity in Zucker rat sub-chronic fa/fa prediabetic model assessed as serum BUN level at 50 mg/kg, po qd for 31 days measured on day 32 (reference value: 28.3 +/- […]); format: organism-based; conditions: in vivo, 744 h
[13] = tested on: Rattus norvegicus; format: functional, Zucker
[14] = tested on: Rattus norvegicus; experiment: Antidiabetic activity in Zucker rat sub-chronic fa/fa prediabetic model assessed as increase in serum adiponectin level administered orally once daily for 32 days by ELISA; format: functional, organism-based
[15] = Cmax in […] chronic ob/ob model at 3 mg/kg, po qd measured on day 1 post dose; format: ADME, organism-based; set-up: dose 3 mg/kg, route oral; conditions: in vivo
[16] = Cmax in […] chronic ob/ob model at 10 mg/kg, po qd for 28 days measured on day 28 post last dose; format: ADME, organism-based; set-up: dose 10 mg/kg, route oral; conditions: in vivo
[17] = Cmax in […] chronic ob/ob model at 50 mg/kg, po qd for 28 days measured on day 28 post last dose; format: ADME, organism-based; set-up: dose 50 mg/kg, route oral; conditions: in vivo
[18] = AUC (0 to 24 hrs) in […] model at 50 mg/kg, po qd measured on day 1 post dose; format: ADME, organism-based; set-up: dose 50 mg/kg, time < 24 hr, route oral; conditions: in vivo
[19] = tested on: Rattus norvegicus; experiment: Toxicity in […] chronic ob/ob model assessed as change in body weight at 3 mg/kg, po qd for 28 days measured on day 1 to 28 during compound dosing (reference value: 9.9 +/- 1.27 g); format: organism-based; conditions: in vivo, 672 h
[20] = tested on: Rattus norvegicus; experiment: Toxicity in […] chronic ob/ob model assessed as food intake at 10 mg/kg, po qd for 28 days measured on day 1 to 28 during compound dosing (reference value: 170.6 +/- 3 g); format: organism-based; conditions: in vivo, 672 h
[21] = tested on: Rattus norvegicus; experiment: Toxicity in […] chronic ob/ob model assessed as epididymal white adipose tissue weight at 50 mg/kg, po qd for 31 days measured on day 32 (reference value: 3.92 +/- 0.14 g); format: organism-based; conditions: in vivo, 744 h
[22] = tested on: Rattus norvegicus; experiment: Increase in ANGPTL4 mRNA expression in epididymal white adipose tissue of Zucker rat sub-chronic fa/fa prediabetic model at 10 mg/kg, po qd for 15 days by RT-PCR method; format: functional, organism-based
[23] = tested on: Rattus norvegicus; experiment: Effect on SUCLG1 gene expression in epididymal white adipose tissue of Zucker rat sub-chronic fa/fa prediabetic model at 10 mg/kg, po qd for 15 days by microarray analysis relative to control; format: functional
[24] = tested on: Rattus norvegicus; experiment: Effect on CPT1A gene expression in epididymal white adipose tissue of Zucker rat sub-chronic fa/fa prediabetic model at 10 mg/kg, po qd for 15 days by microarray analysis relative to control; format: functional
[25] = tested on: Rattus norvegicus; experiment: Effect on ECHS1 gene expression in epididymal white adipose tissue of Zucker rat sub-chronic fa/fa prediabetic model at 10 mg/kg, po qd for 15 days by microarray analysis relative to control; format: functional
[26] = tested on: Rattus norvegicus; experiment: Effect on PIK3R6 gene expression in epididymal white adipose tissue of Zucker rat sub-chronic fa/fa prediabetic model at 10 mg/kg, po qd for 15 days by microarray analysis relative to control; format: functional
[27] = tested on: Rattus norvegicus; experiment: Effect on CPT2 gene expression in epididymal white adipose tissue of Zucker rat sub-chronic fa/fa prediabetic model at 10 mg/kg, po qd for 15 days by microarray analysis relative to control; format: functional
[28] = tested on: Rattus norvegicus; experiment: Effect on GNPAT gene expression in epididymal white adipose tissue of Zucker rat sub-chronic fa/fa prediabetic model at 10 mg/kg, po qd for 15 days by microarray analysis relative to control; format: functional
[29] = tested on: Rattus norvegicus; experiment: Effect on NR1H2 gene expression in epididymal white adipose tissue of Zucker rat sub-chronic fa/fa prediabetic model at 10 mg/kg, po qd for 15 days by microarray analysis relative to control; format: functional
[30] = tested on: Rattus norvegicus; experiment: Effect on ALDH3B1 gene expression in epididymal white adipose tissue of Zucker rat sub-chronic fa/fa prediabetic model at 10 mg/kg, po qd for 15 days by microarray analysis relative to control; format: functional
[31] = tested on: Rattus norvegicus; experiment: Effect on IL1RL1 gene expression in epididymal white adipose tissue of Zucker rat sub-chronic fa/fa prediabetic model at 10 mg/kg, po qd for 15 days by microarray analysis relative to control; format: functional
[32] = tested on: Rattus norvegicus; experiment: Effect on ACAT1 gene expression in epididymal white adipose tissue of Zucker rat sub-chronic fa/fa prediabetic model at 10 mg/kg, po qd for 15 days by microarray analysis relative to control; format: functional
[33] = tested on: Rattus norvegicus; experiment: Effect on MSMO1 gene expression in epididymal white adipose tissue of Zucker rat sub-chronic fa/fa prediabetic model at 10 mg/kg, po qd for 15 days by microarray analysis relative to control; format: functional
[34] = tested on: Rattus norvegicus; experiment: Effect on PLCB1 gene expression in epididymal white adipose tissue of Zucker rat sub-chronic fa/fa prediabetic model at 10 mg/kg, po qd for 15 days by microarray analysis relative to control; format: functional

Estrogen-related receptor gamma, sequence (P62508 whole entry): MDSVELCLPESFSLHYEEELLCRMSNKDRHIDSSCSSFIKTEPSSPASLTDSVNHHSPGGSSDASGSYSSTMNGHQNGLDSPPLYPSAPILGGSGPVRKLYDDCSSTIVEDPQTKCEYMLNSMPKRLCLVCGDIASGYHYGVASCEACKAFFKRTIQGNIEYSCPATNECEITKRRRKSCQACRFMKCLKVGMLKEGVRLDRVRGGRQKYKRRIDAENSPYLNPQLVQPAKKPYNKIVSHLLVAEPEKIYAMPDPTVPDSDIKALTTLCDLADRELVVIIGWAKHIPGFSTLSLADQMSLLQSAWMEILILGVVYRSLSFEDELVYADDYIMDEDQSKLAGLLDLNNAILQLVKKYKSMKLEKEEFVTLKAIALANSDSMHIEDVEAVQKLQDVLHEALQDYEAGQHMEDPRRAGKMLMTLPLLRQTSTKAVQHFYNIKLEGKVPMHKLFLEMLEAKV

In the case of `CN1CC[C@@H](N2C(=O)S/C(=C\c3ccc4c(cnn4Cc4ccc(Cl)cc4C(F)(F)F)c3)C2=O)[C@H](F)C1`, the IC50 [1] is reported as > 10 µM, the Vd [2] is reported as 6.89 L/kg and the AUC(0-t) at 24 h [3] is reported as 5410 ng·h/mL. It also gave a half-life [4] of 8.1 h, an Activity [5] of 118 mg/dL and an AUC(0-t) at 24 h [6] of 18100 ng·h/mL. The Activity [7] was 160 g, the Activity [8] was 157 g and the Activity [9] was 122 mg. The Activity [10] was 179 mg/dL, the Activity [11] was 26.9 mg/dL and the Activity [12] was 23.9 mg/dL. The Activity [13] was 17.3%, the Activity [14] was “Dose-dependent effect” and the Cmax [15] was 207 ng/mL. It also gave a Cmax [16] of 454 ng/mL, a Cmax [17] of 1680 ng/mL and an AUC(0-t) at 24 h [18] of 16900 ng·h/mL. It also gave an Activity [19] of 6.3 g, an Activity [20] of 167.8 g and an Activity [21] of 2.95 g. For the same compound, the Activity [22] was “Active”, the “fold change (FC)” value [23] was 1.401 and the “fold change (FC)” value [24] was -1.277. For the same compound, the “fold change (FC)” value [25] was 1.35, the “fold change (FC)” value [26] was -1.276 and the “fold change (FC)” value [27] was 2.352. For the same compound, the “fold change (FC)” value [28] was 1.212, the “fold change (FC)” value [29] was -1.407 and the “fold change (FC)” value [30] was -1.554. The “fold change (FC)” value [31] was -2.752, the “fold change (FC)” value [32] was 1.634 and the “fold change (FC)” value [33] was -1.271. The “fold change (FC)” value [34] was 1.58.

From ChEMBL document CHEMBL4130359, “Indazole-based ligands for estrogen-related receptor α as potential anti-diabetic agents” (Eur J Med Chem, 2017)
